Read-outs that look alike come from different tables or passages of the source.
What was measured:
Test in all cases: Test C pre-/postemergence greenhouse herbicide test
Format in all cases: in vivo
[1] = system: kochia (Kochia scoparia); conditions: Postemergence
Method in brief: (§1)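 Plant response is scored on a 0–100 scale, where 100 means complete control, by visual comparison with controls 13 to 15 d after greenhouse treatment. Applications are made pre- and postemergence using a surfactant-containing, non-phytotoxic solvent formulation.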

[2] = system: foxtail, giant (giant foxtail, Setaria faberii); conditions: Setaria faberi, Foxtail, Giant, read-out: Plant response rating; for pest or weed control at 31 g/ha: 31 g ai/ha; for pest or weed control at 62 g/ha: 62 g ai/ha; for pest or weed control at 125 g/ha: 125 g ai/ha; for pest or weed control at 250 g/ha: 250 g ai/ha
Method in brief: as §1

[3] = system: morningglory (Ipomoea coccinea); conditions: Morningglory
Method in brief: as §1

[4] = system: soybean (Glycine max); conditions: Glycine max, Soybean, read-out: Plant response rating; for plant injury at 62 g/ha: 62 g ai/ha; for plant injury at 125 g/ha: 125 g ai/ha; for plant injury at 250 g/ha: 250 g ai/ha
Method in brief: as §1

[5] = system: nutsedge, yellow (yellow nutsedge, Cyperus esculentus); conditions: Cyperus, Nutsedge, Yellow, read-out: Plant response rating; for pest or weed control at 31 g/ha: 31 g ai/ha; for pest or weed control at 62 g/ha: 62 g ai/ha; for pest or weed control at 125 g/ha: 125 g ai/ha; for pest or weed control at 250 g/ha: 250 g ai/ha
Method in brief: as §1

[6] = system: waterhemp (common waterhemp, Amaranthus rudis); conditions: Waterhemp
Method in brief: as §1

[7] = system: galium (catchweed bedstraw, Galium aparine); conditions: Galium, read-out: Plant response rating; for pest or weed control at 31 g/ha: 31 g ai/ha; for pest or weed control at 62 g/ha: 62 g ai/ha; for pest or weed control at 125 g/ha: 125 g ai/ha; for pest or weed control at 250 g/ha: 250 g ai/ha
Method in brief: as §1

[8] = system: blackgrass (Alopecurus myosuroides); conditions: Alopecurus myosuroides, Blackgrass, read-out: Plant response rating; for pest or weed control at 31 g/ha: 31 g ai/ha; for pest or weed control at 62 g/ha: 62 g ai/ha; for pest or weed control at 125 g/ha: 125 g ai/ha; for pest or weed control at 250 g/ha: 250 g ai/ha
Method in brief: as §1

[9] = system: ryegrass, Italian (Italian ryegrass, Lolium multiflorum); conditions: Lolium multiflorum, Ryegrass, Italian, read-out: Plant response rating; for pest or weed control at 31 g/ha: 31 g ai/ha; for pest or weed control at 62 g/ha: 62 g ai/ha; for pest or weed control at 125 g/ha: 125 g ai/ha; for pest or weed control at 250 g/ha: 250 g ai/ha
Method in brief: as §1

[10] = system: corn (Zea mays); conditions: Zea mays, Corn, read-out: Plant response rating; for plant injury at 31 g/ha: 31 g ai/ha; for plant injury at 62 g/ha: 62 g ai/ha; for plant injury at 125 g/ha: 125 g ai/ha; for plant injury at 250 g/ha: 250 g ai/ha
Method in brief: as §1

[11] = system: velvetleaf (Abutilon theophrasti); conditions: Abutilon theophrasti, Velvetleaf, read-out: Plant response rating; for pest or weed control at 62 g/ha: 62 g ai/ha; for pest or weed control at 125 g/ha: 125 g ai/ha; for pest or weed control at 250 g/ha: 250 g ai/ha
Method in brief: as §1

[12] = system: lambsquarters (Chenopodium album)
Method in brief: as §1

`COc1cc(=O)n(-c2ccc(C(F)(F)F)cc2)nc1Cc1ccnc(C(F)(F)F)c1` [Compound 16, 5-methoxy-2-[4-(trifluoromethyl)phenyl]-6-[[2-(trifluoromethyl)-4-pyridinyl]methyl]-3(2H)-pyridazinone] gave a Plant response rating ([1]; 31 g ai/ha) of 90, a Plant response rating ([1]; 62 g ai/ha) of 90 and a Plant response rating ([1]; 125 g ai/ha) of 90. For the same compound, the Plant response rating ([1]; 250 g ai/ha) was 90, the pest or weed control at 31 g/ha ([2]; post-emergence, Postemergence) was 15% and the pest or weed control at 62 g/ha ([2]; post-emergence, Postemergence) was 15%. For the same compound, the pest or weed control at 125 g/ha ([2]; post-emergence, Postemergence) was 30%, the pest or weed control at 250 g/ha ([2]; post-emergence, Postemergence) was 55% and the pest or weed control at 31 g/ha ([2]; pre-emergence, Preemergence) was 98%. The pest or weed control at 62 g/ha ([2]; pre-emergence, Preemergence) was 98%, the pest or weed control at 125 g/ha ([2]; pre-emergence, Preemergence) was 100% and the pest or weed control at 250 g/ha ([2]; pre-emergence, Preemergence) was 100%. For the same compound, the Plant response rating ([3]; Postemergence, 31 g ai/ha) was 50, the Plant response rating ([3]; Postemergence, 62 g ai/ha) was 70 and the Plant response rating ([3]; Postemergence, 125 g ai/ha) was 98. It also gave a Plant response rating ([3]; Postemergence, 250 g ai/ha) of 98, a Plant response rating ([3]; Preemergence, 31 g ai/ha) of 45 and a Plant response rating ([3]; Preemergence, 62 g ai/ha) of 95. It also gave a Plant response rating ([3]; Preemergence, 125 g ai/ha) of 100, a Plant response rating ([3]; Preemergence, 250 g ai/ha) of 100 and a plant injury at 62 g/ha ([4]; post-emergence, Postemergence) of 50%. For the same compound, the plant injury at 125 g/ha ([4]; post-emergence, Postemergence) was 55%, the plant injury at 250 g/ha ([4]; post-emergence, Postemergence) was 65% and the plant injury at 62 g/ha ([4]; pre-emergence, Preemergence) was 25%. It also gave a plant injury at 125 g/ha ([4]; pre-emergence, Preemergence) of 65%, a plant injury at 250 g/ha ([4]; pre-emergence, Preemergence) of 75% and a pest or weed control at 31 g/ha ([5]; post-emergence, Postemergence) of 5%. For the same compound, the pest or weed control at 62 g/ha ([5]; post-emergence, Postemergence) was 5%, the pest or weed control at 125 g/ha ([5]; post-emergence, Postemergence) was 5% and the pest or weed control at 250 g/ha ([5]; post-emergence, Postemergence) was 20%. For the same compound, the pest or weed control at 31 g/ha ([5]; pre-emergence, Preemergence) was 5%, the pest or weed control at 62 g/ha ([5]; pre-emergence, Preemergence) was 10% and the pest or weed control at 125 g/ha ([5]; pre-emergence, Preemergence) was 30%. It also gave a pest or weed control at 250 g/ha ([5]; pre-emergence, Preemergence) of 55%, a Plant response rating ([6]; Postemergence, 31 g ai/ha) of 80 and a Plant response rating ([6]; Postemergence, 62 g ai/ha) of 90. The Plant response rating ([6]; Postemergence, 125 g ai/ha) was 95, the Plant response rating ([6]; Postemergence, 250 g ai/ha) was 98 and the Plant response rating ([6]; Preemergence, 62 g ai/ha) was 100. For the same compound, the Plant response rating ([6]; Preemergence, 125 g ai/ha) was 100, the Plant response rating ([6]; Preemergence, 250 g ai/ha) was 100 and the pest or weed control at 31 g/ha ([7]; post-emergence, Postemergence) was 80%. The pest or weed control at 62 g/ha ([7]; post-emergence, Postemergence) was 80%, the pest or weed control at 125 g/ha ([7]; post-emergence, Postemergence) was 90% and the pest or weed control at 250 g/ha ([7]; post-emergence, Postemergence) was 90%. For the same compound, the pest or weed control at 31 g/ha ([7]; pre-emergence, Preemergence) was 70%, the pest or weed control at 62 g/ha ([7]; pre-emergence, Preemergence) was 98% and the pest or weed control at 125 g/ha ([7]; pre-emergence, Preemergence) was 100%. It also gave a pest or weed control at 250 g/ha ([7]; pre-emergence, Preemergence) of 100%, a pest or weed control at 31 g/ha ([8]; post-emergence, Postemergence) of 5% and a pest or weed control at 62 g/ha ([8]; post-emergence, Postemergence) of 5%. It also gave a pest or weed control at 125 g/ha ([8]; post-emergence, Postemergence) of 5%, a pest or weed control at 250 g/ha ([8]; post-emergence, Postemergence) of 10% and a pest or weed control at 31 g/ha ([8]; pre-emergence, Preemergence) of 40%. It also gave a pest or weed control at 62 g/ha ([8]; pre-emergence, Preemergence) of 50%, a pest or weed control at 125 g/ha ([8]; pre-emergence, Preemergence) of 60% and a pest or weed control at 250 g/ha ([8]; pre-emergence, Preemergence) of 90%. It also gave a pest or weed control at 31 g/ha ([9]; post-emergence, Postemergence) of 5%, a pest or weed control at 62 g/ha ([9]; post-emergence, Postemergence) of 5% and a pest or weed control at 125 g/ha ([9]; post-emergence, Postemergence) of 15%. The pest or weed control at 250 g/ha ([9]; post-emergence, Postemergence) was 35%, the pest or weed control at 31 g/ha ([9]; pre-emergence, Preemergence) was 5% and the pest or weed control at 62 g/ha ([9]; pre-emergence, Preemergence) was 30%. For the same compound, the pest or weed control at 125 g/ha ([9]; pre-emergence, Preemergence) was 85%, the pest or weed control at 250 g/ha ([9]; pre-emergence, Preemergence) was 90% and the plant injury at 31 g/ha ([10]; post-emergence, Postemergence) was 20%. For the same compound, the plant injury at 62 g/ha ([10]; post-emergence, Postemergence) was 40%, the plant injury at 125 g/ha ([10]; post-emergence, Postemergence) was 40% and the plant injury at 250 g/ha ([10]; post-emergence, Postemergence) was 55%. The plant injury at 31 g/ha ([10]; pre-emergence, Preemergence) was 45%, the plant injury at 62 g/ha ([10]; pre-emergence, Preemergence) was 60% and the plant injury at 125 g/ha ([10]; pre-emergence, Preemergence) was 75%. The plant injury at 250 g/ha ([10]; pre-emergence, Preemergence) was 75%, the pest or weed control at 31 g/ha ([11]; post-emergence, Postemergence, 31 g ai/ha) was 25% and the pest or weed control at 62 g/ha ([11]; post-emergence, Postemergence) was 50%. For the same compound, the pest or weed control at 125 g/ha ([11]; post-emergence, Postemergence) was 60%, the pest or weed control at 250 g/ha ([11]; post-emergence, Postemergence) was 75% and the pest or weed control at 62 g/ha ([11]; pre-emergence, Preemergence) was 80%. For the same compound, the pest or weed control at 125 g/ha ([11]; pre-emergence, Preemergence) was 100%, the pest or weed control at 250 g/ha ([11]; pre-emergence, Preemergence) was 100% and the Plant response rating ([12]; Postemergence, 31 g ai/ha) was 70. For the same compound, the Plant response rating ([12]; Postemergence, 62 g ai/ha) was 95, the Plant response rating ([12]; Postemergence, 125 g ai/ha) was 95 and the Plant response rating ([12]; Postemergence, 250 g ai/ha) was 95. It also gave a Plant response rating ([12]; Preemergence, 31 g ai/ha) of 100, a Plant response rating ([12]; Preemergence, 62 g ai/ha) of 100 and a Plant response rating ([12]; Preemergence, 125 g ai/ha) of 100. It also gave a Plant response rating ([12]; Preemergence, 250 g ai/ha) of 100.
